Results as given in paper PMC7093416, “Selective USP7 inhibition elicits cancer cell killing through a p53-dependent mechanism” (Scientific Reports, 2020).
Values joined by “and” are separate entries in the source; they are usually repeats but may differ in a detail not shown here. Identical values can stand only once.

Test system: panel of 484 cancer cell lines
Assay: PRISM cancer cell line profiling, 5 days
Format: cell-based
Parameters: Viability: scale not given here; AUC: unit not given beside the values
Description: Cancer cell line profiling was performed using the Broad’s PRISM platform. Cell treatment and data analysis were performed as described in Yu et al[42]. Raw Luminex signal was converted to AUC values for each cell line as described. The resulting AUC profile for each compound was modeled against DepMap using the limma package in R[71]. Because hotspot mutation analysis was performed against DepMap, TP53 annotations in Fig. 6c,d are directly from DepMap.

[1] = ISHIKAWAHERAKLIO02ER_ENDOMETRIUM, pert_dose 6.10E-04
[2] = ISTMES1_PLEURA, pert_dose 6.10E-04
[3] = J82_URINARY_TRACT, pert_dose 6.10E-04
[4] = JHOC5_OVARY, pert_dose 6.10E-04
[5] = JHOM1_OVARY, pert_dose 6.10E-04
[6] = JHOS2_OVARY, pert_dose 6.10E-04
[7] = JHUEM2_ENDOMETRIUM, pert_dose 6.10E-04
[8] = JMSU1_URINARY_TRACT, pert_dose 6.10E-04
[9] = K029AX_SKIN, pert_dose 6.10E-04
[10] = KMBC2_URINARY_TRACT, pert_dose 6.10E-04
[11] = KMRC1_KIDNEY, pert_dose 6.10E-04
[12] = KMRC3_KIDNEY, pert_dose 6.10E-04
[13] = KMRC20_KIDNEY, pert_dose 6.10E-04
[14] = KNS42_CENTRAL_NERVOUS_SYSTEM, pert_dose 6.10E-04
[15] = KNS60_CENTRAL_NERVOUS_SYSTEM, pert_dose 6.10E-04
[16] = KNS81_CENTRAL_NERVOUS_SYSTEM, pert_dose 6.10E-04
[17] = KP3_PANCREAS, pert_dose 6.10E-04
[18] = KPL1_BREAST, pert_dose 6.10E-04

COc1ccc(C2=N[C@@H](c3ccc(Cl)cc3)[C@@H](c3ccc(Cl)cc3)N2C(=O)N2CCNC(=O)C2)c(OC(C)C)c1 [Nutlin-3A]
MFI ISHIKAWAHERAKLIO02ER_ENDOMETRIUM [1]: 17513 and 21089 and 23031 and 24710 and 21077 | Viability [1]: 1.048 | AUC (ISTMES1_PLEURA): 0.8886 | MFI ISTMES1_PLEURA [2]: 2566 and 2035 and 2347.5 and 2015 and 3109 | Viability [2]: 1.235 | AUC (ISTMES2_PLEURA): 1.138 | AUC (J82_URINARY_TRACT): 1.1759 | MFI J82_URINARY_TRACT [3]: 7594 and 8347 and 7959 and 7415.5 and 7720 | Viability [3]: 1.013 | AUC (JHH1_LIVER): 0.9453 | MFI JHH1_LIVER (JHH1_LIVER, pert_dose 6.10E-04): 11573 and 10266 and 10186 and 11807 and 10726 | Viability (JHH1_LIVER, pert_dose 6.10E-04): 1.394 | AUC (JHH4_LIVER): 1.013 | MFI JHH4_LIVER (JHH4_LIVER, pert_dose 6.10E-04): 1508 and 1417.5 and 1162 and 1639 and 865 | Viability (JHH4_LIVER, pert_dose 6.10E-04): 1.304 | AUC (JHH5_LIVER): 1.1112 | MFI JHH5_LIVER (JHH5_LIVER, pert_dose 6.10E-04): 3002.5 and 2853 and 3080 and 1890 and 2323 | Viability (JHH5_LIVER, pert_dose 6.10E-04): 1.08 | AUC (JHH6_LIVER): 1.195 | AUC (JHH7_LIVER): 1.097 | MFI JHH7_LIVER (JHH7_LIVER, pert_dose 6.10E-04): 18251 and 14971.5 and 12968 and 19915 and 22149.5 | Viability (JHH7_LIVER, pert_dose 6.10E-04): 1.3367 | AUC (JHOC5_OVARY): 0.8963 | MFI JHOC5_OVARY [4]: 1729 and 2155 and 2543 and 1875 and 1529 | Viability [4]: 1.248 | AUC (JHOM1_OVARY): 1.061 | MFI JHOM1_OVARY [5]: 10909 and 10588 and 11258 and 11487.5 and 8758 | Viability [5]: 1.182 | AUC (JHOS2_OVARY): 1.199 | MFI JHOS2_OVARY [6]: 8954 and 9206 and 9624 and 7221 and 11208 | Viability [6]: 1.028 | AUC (JHUEM2_ENDOMETRIUM): 0.8108 | MFI JHUEM2_ENDOMETRIUM [7]: 2855 and 2201 and 2113.5 and 2693 and 2731 | Viability [7]: 1.224 | AUC (JIMT1_BREAST): 1.15 | MFI JIMT1_BREAST (JIMT1_BREAST, pert_dose 6.10E-04): 10595.5 and 12336 and 13040 and 10400 and 10776.5 | AUC (JMSU1_URINARY_TRACT): 1.157 | MFI JMSU1_URINARY_TRACT [8]: 4527 and 4135 and 3123.5 and 5456 and 3525 | Viability [8]: 1.215 | AUC (K029AX_SKIN): 1.078 | MFI K029AX_SKIN [9]: 12564 and 8034.5 and 10939 and 12309 and 13968 | Viability [9]: 1.186 | AUC (KALS1_CENTRAL_NERVOUS_SYSTEM): 1.089 | AUC (KELLY_AUTONOMIC_GANGLIA): 1.128 | Viability (KELLY_AUTONOMIC_GANGLIA, pert_dose 6.10E-04): 1.339 | AUC (KMBC2_URINARY_TRACT): 0.9038 | MFI KMBC2_URINARY_TRACT [10]: 31608 and 32944 and 28231 and 28847.5 and 34382 | Viability [10]: 1.231 | AUC (KMRC1_KIDNEY): 0.8619 | MFI KMRC1_KIDNEY [11]: 5006 and 3553 and 4568 and 4375 and 4801 | Viability [11]: 1.324 | AUC (KMRC3_KIDNEY): 1.059 | MFI KMRC3_KIDNEY [12]: 29567 and 34290 and 33080.5 and 28662.5 and 32330 | Viability [12]: 1.163 | AUC (KMRC20_KIDNEY): 1.075 | MFI KMRC20_KIDNEY [13]: 6115 and 7240 and 5574 and 9127.5 and 7315 | Viability [13]: 0.8672 | AUC (KNS42_CENTRAL_NERVOUS_SYSTEM): 1.094 | MFI KNS42_CENTRAL_NERVOUS_SYSTEM [14]: 8504.5 and 8227 and 7874 and 8635.5 and 8359 | Viability [14]: 1.265 | AUC (KNS60_CENTRAL_NERVOUS_SYSTEM): 1.169 | MFI KNS60_CENTRAL_NERVOUS_SYSTEM [15]: 11444.5 and 12827 and 11109 and 11402 and 11624 | Viability [15]: 1.1124 | AUC (KNS62_LUNG): 1.292 | MFI KNS62_LUNG (KNS62_LUNG, pert_dose 6.10E-04): 2968.5 and 3165 and 4343 and 4527 and 3128 | Viability (KNS62_LUNG, pert_dose 6.10E-04): 1.098 | AUC (KNS81_CENTRAL_NERVOUS_SYSTEM): 0.9079 | MFI KNS81_CENTRAL_NERVOUS_SYSTEM [16]: 11445 and 13291.5 and 12010.5 and 13242.5 and 18307.5 | Viability [16]: 0.9016 | AUC (KP2_PANCREAS): 1.091 | AUC (KP3_PANCREAS): 1.107 | MFI KP3_PANCREAS [17]: 17810 and 19047 and 22202 and 17616 and 20627.5 | Viability [17]: 1.1325 | AUC (KP4_PANCREAS): 1.1795 | MFI KP4_PANCREAS (KP4_PANCREAS, pert_dose 6.10E-04): 27317.5 and 27770 and 29960.5 and 31578.5 and 28421.5 | AUC (KPL1_BREAST): 0.8742 | MFI KPL1_BREAST [18]: 9781 and 14848 and 14727 and 9958 and 12061.5 | Viability [18]: 0.9855 | AUC (KU1919_URINARY_TRACT): 0.8508 | AUC (KURAMOCHI_OVARY): 1.126 | AUC (KYSE30_OESOPHAGUS): 0.985 | AUC (KYSE70_OESOPHAGUS): 1.1193 | AUC (KYSE140_OESOPHAGUS): 1.1498 | AUC (KYSE150_OESOPHAGUS): 1.138 | AUC (KYSE180_OESOPHAGUS): 1.143 | AUC (KYSE270_OESOPHAGUS): 0.9726 | AUC (KYSE410_OESOPHAGUS): 1.088 | AUC (KYSE510_OESOPHAGUS): 0.9924 | AUC (KYSE520_OESOPHAGUS): 1.08 | AUC (L33_PANCREAS): 1.295 | AUC (LC1SQSF_LUNG): 1.142
